Measurements: patent publication US20140088306A1, “RADIOACTIVE FLUORINE-LABELED QUINOXALINE COMPOUND” (Nihon Medi-Physics Co., Ltd., priority 2012, published 2014)
“Also recorded” adds a separate entry of the source.

Assays:
[1] = In vivo radioactivity distribution experiment in normal mouse (Example 16); set-up: species or system ddY mice; conditions: for Radioactivity Amount, Blood / Radioactivity Amount, Bone / Radioactivity Amount, Brain / Radioactivity Amount, Heart / Radioactivity Amount, Intestine / Radioactivity Amount, Kidney / Radioactivity Amount, Liver / Radioactivity Amount, Lung / Radioactivity Amount, Pancreas / Radioactivity Amount, Spleen / Radioactivity Amount, Stomach*: normal ddY mice, tail vein, average for 5 mice (SD)
Experimental: An ethanol (10 μL)-containing saline solution of [^18F]D1 (25.8 kBq) or [^18F]D2 (48.2 kBq) (100 μL) was injected into the tail vein of ddY mice (male, 5-week old). Five mice were used for each group and sacrificed 2, 10, 30, and 60 minutes after administration to remove major organs. The blood and organs were weighed and further measured for radioactivity using a γ counter (Wallac 1470 Wizard 3, from Perkin-Elmer). The percent injected dose per organ was calculated by comparing tissue counts with suitably diluted aliquots of the injected material. The percent injected dose/g of each sample was calculated by comparing sample counts with the counts of the diluted initial dose.

Aβ plaques = assay: In vitro autoradiography using postmortem brain section from Alzheimer's disease (Examples 14, 15); format: binding, human (Alzheimer's disease patient); conditions: brain section of Alzheimer's disease patient
Experimental: A postmortem autopsy brain tissue of a patient with Alzheimer's disease identified by postmortem dissection was obtained from Graduate School of Medicine, Kyoto University. The presence and location of senile plaques in the section were confirmed by immunohistochemical staining using an anti-Aβ1-42 antibody. The section was incubated together with [^18F]D1 or [^18F]D2 (0.37 MBq/100 μL) at room temperature for 1 hour. The resultant was immersed in a 50 volume % ethanol aqueous solution (2 minutes×2) and washed with water (2 minutes×2). After drying, the section was exposed to BAS imaging plate (from Fujifilm Corporation) for 1.5 hours. The image of autoradiography was obtained using BAS5000 scanner system (from Fujifilm Corporation).
A postmortem autopsy brain tissue of a patient with Alzheimer's disease identified by postmortem dissection was obtained from Graduate School of Medicine, Kyoto University, and serial sections […] of a paraffin-embedded brain tissue were used. First, they were each incubated with xylene (15 minutes×2), ethanol (1 minute×2), a 90 volume % ethanol aqueous solution (1 minute×2), and a 70 volume % ethanol aqueous solution (1 minute×1) in that order to perfectly perform deparaffinization, and then washed in water (2.5 minutes×2). Thereafter, for antibody recovery, the section was subjected to autoclave treatment for 15 minutes in 0.01 mol/L citrate buffer solution (pH 6.0). The resultant was incubated in PBS-Tween20 (5 minutes×2), and, for antibody recovery, incubated in a 90 volume % formic acid aqueous solution at room temperature for 5 minutes. The section was washed for 5 minutes with flowing tap water, and then incubated in PBS-Tween20 (2 minutes×1). The section was incubated with a mouse anti-Aβ1-42 monoclonal primary antibody (from Wako Pure Chemical Industries Ltd.) at room temperature overnight. The resultant was incubated in PBS-Tween20 (5 minutes×3) and then incubated together with biotin goat anti-mouse IgG (from Funakoshi Co., Ltd.) at room temperature for 1 hour. […]

Molecule: 4-(6-(2-[^18F]Fluoroethoxy)quinoxalin-2-yl)-N-methylaniline [[^18F]D2]
- Radioactivity Amount, Blood ([1]; 2 min. after): 3.91 (0.22) % injected dose/g
- Radioactivity Amount, Blood ([1]; 10 min. after): 3.35 (0.43) % injected dose/g
- Radioactivity Amount, Blood ([1]; 30 min. after): 3.83 (0.18) % injected dose/g
- Radioactivity Amount, Blood ([1]; 60 min. after): 4.15 (0.31) % injected dose/g
- Radioactivity Amount, Bone ([1]; 2 min. after): 2.81 (0.52) % injected dose/g
- Radioactivity Amount, Bone ([1]; 10 min. after): 2.12 (0.11) % injected dose/g
- Radioactivity Amount, Bone ([1]; 30 min. after): 2.86 (0.45) % injected dose/g
- Radioactivity Amount, Bone ([1]; 60 min. after): 4.26 (0.29) % injected dose/g
- Radioactivity Amount, Brain ([1]; 2 min. after): 6.19 (0.30) % injected dose/g
- Radioactivity Amount, Brain ([1]; 10 min. after): 5.11 (0.28) % injected dose/g
- Radioactivity Amount, Brain ([1]; 30 min. after): 2.73 (0.16) % injected dose/g
- Radioactivity Amount, Brain ([1]; 60 min. after): 2.41 (0.12) % injected dose/g
- Radioactivity Amount, Heart ([1]; 2 min. after): 6.12 (0.45) % injected dose/g
- Radioactivity Amount, Heart ([1]; 10 min. after): 3.93 (0.40) % injected dose/g
- Radioactivity Amount, Heart ([1]; 30 min. after): 3.20 (0.32) % injected dose/g
- Radioactivity Amount, Heart ([1]; 60 min. after): 3.80 (0.22) % injected dose/g
- Radioactivity Amount, Intestine ([1]; 2 min. after): 3.40 (0.34) % injected dose/g
- Radioactivity Amount, Intestine ([1]; 10 min. after): 8.06 (0.95) % injected dose/g
- Radioactivity Amount, Intestine ([1]; 30 min. after): 12.13 (2.05) % injected dose/g
- Radioactivity Amount, Intestine ([1]; 60 min. after): 13.37 (1.03) % injected dose/g
- Radioactivity Amount, Kidney ([1]; 2 min. after): 9.86 (0.77) % injected dose/g
- Radioactivity Amount, Kidney ([1]; 10 min. after): 6.40 (0.62) % injected dose/g
- Radioactivity Amount, Kidney ([1]; 30 min. after): 4.14 (0.31) % injected dose/g
- Radioactivity Amount, Kidney ([1]; 60 min. after): 3.08 (0.21) % injected dose/g
- Radioactivity Amount, Liver ([1]; 2 min. after): 8.81 (1.00) % injected dose/g
- Radioactivity Amount, Liver ([1]; 10 min. after): 9.29 (0.40) % injected dose/g
- Radioactivity Amount, Liver ([1]; 30 min. after): 7.07 (0.19) % injected dose/g
- Radioactivity Amount, Liver ([1]; 60 min. after): 6.10 (0.41) % injected dose/g
- Radioactivity Amount, Lung ([1]; 2 min. after): 8.13 (1.13) % injected dose/g
- Radioactivity Amount, Lung ([1]; 10 min. after): 5.10(0.74) % injected dose/g
- Radioactivity Amount, Lung ([1]; 30 min. after): 3.94 (0.33) % injected dose/g
- Radioactivity Amount, Lung ([1]; 60 min. after): 3.92 (0.11) % injected dose/g
- Radioactivity Amount, Pancreas ([1]; 2 min. after): 6.47 (0.75) % injected dose/g
- Radioactivity Amount, Pancreas ([1]; 10 min. after): 3.88 (0.52) % injected dose/g
- Radioactivity Amount, Pancreas ([1]; 30 min. after): 2.72 (0.29) % injected dose/g
- Radioactivity Amount, Pancreas ([1]; 60 min. after): 2.64 (0.34) % injected dose/g
- Radioactivity Amount, Spleen ([1]; 2 min. after): 3.14 (0.55) % injected dose/g
- Radioactivity Amount, Spleen ([1]; 10 min. after): 3.76 (0.55) % injected dose/g
- Radioactivity Amount, Spleen ([1]; 30 min. after): 3.07 (0.32) % injected dose/g
- Radioactivity Amount, Spleen ([1]; 60 min. after): 2.99 (0.21) % injected dose/g
- Radioactivity Amount, Stomach* ([1]; 2 min. after): 1.32 (0.21) % injected dose per organ
- Radioactivity Amount, Stomach* ([1]; 10 min. after): 1.86 (0.38) % injected dose per organ
- Radioactivity Amount, Stomach* ([1]; 30 min. after): 2.44 (0.62) % injected dose per organ
- Radioactivity Amount, Stomach* ([1]; 60 min. after): 2.00 (0.76) % injected dose per organ
- binding to / background in the white matter by autoradiography (Aβ plaques): low degree of background in the white matter
- labeling of Aβ plaques by autoradiography (Aβ plaques; 0.37 MBq/100 μL, 1 hour): provided a strong marker for Aβ plaques; also recorded: corresponded to the results of antibody immunohistochemical staining

Molecule: Nc1ccc(-c2cnc3cc(OCC[18F])ccc3n2)cc1 [[^18F]D1, 4-(6-(2-[^18F]Fluoroethoxy)quinoxalin-2-yl)aniline]
- Radioactivity Amount, Liver ([1]; 2 min. after): 5.30 (1.33) % injected dose/g
- Radioactivity Amount, Liver ([1]; 10 min. after): 6.58 (0.47) % injected dose/g
- Radioactivity Amount, Liver ([1]; 30 min. after): 4.90 (0.29) % injected dose/g
- Radioactivity Amount, Liver ([1]; 60 min. after): 4.88 (0.30) % injected dose/g
- amount of radioactivity in the brain ([1]; mouse, in vivo): 2.41-3.08 % ID/g
- binding to / background in the white matter by autoradiography (Aβ plaques): high non-specific binding to the white matter
